#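 Assay format: 96-well plates, 48-hour exposure. TGI: concentration producing complete growth inhibition.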
# What was measured:
# Test in all cases: NCI anticancer screen, dose series, 48 h
# [1] = test system: UACC-257 melanoma
# [2] = test system: SF-268 CNS
# [3] = test system: UO-31 renal
# [4] = test system: NCI-H522 lung
# [5] = test system: A498 renal
# [6] = test system: RXF 393 renal
# [7] = test system: HCT-116 colon
# [8] = test system: HOP-92 NSCLC
# [9] = test system: UACC-62 melanoma
# [10] = test system: KM20L2 colon
# [11] = test system: HCC-2998 colon
# [12] = test system: CAKI-1 renal
# [13] = test system: HCT-15 colon
# [14] = test system: 786-0 renal
# [15] = test system: XF 498 CNS
# [16] = test system: SF-295 CNS
# [17] = test system: NCI-H460 lung
# [18] = test system: MALME-3M melanoma
# [19] = test system: LXFL 529 NSCLC
# [20] = test system: NCI-H226 lung
# [21] = test system: SK-MEL-28 melanoma
# [22] = test system: M19-MEL melanoma
# [23] = test system: NCI-H23 lung
# [24] = test system: U251 CNS
# [25] = test system: OVCAR-3 ovarian
# [26] = test system: A549 NSCLC
# [27] = test system: SNB-78 CNS
# [28] = test system: KM12 colon
# [29] = test system: DMS 273 small cell lung
# [30] = test system: EKVX NSCLC
# [31] = test system: SW-620 colon
# [32] = test system: ACHN renal
# [33] = test system: IGROV1 ovarian
# [34] = test system: SN12C renal
# [35] = test system: SNB-19 CNS
# [36] = test system: SK-MEL-2 melanoma
# [37] = test system: LOX IMVI melanoma
# [38] = test system: SF-539 CNS
# [39] = test system: OVCAR-8 ovarian
# [40] = test system: OVCAR-5 ovarian
# [41] = test system: HT29 colon
# [42] = test system: SK-OV-3 ovarian
# [43] = test system: COLO 205 colon
# [44] = test system: DMS 114 small cell lung
# [45] = test system: CCRF-CEM leukemia
# [46] = test system: TK-10 renal
# [47] = test system: MOLT-4 leukemia
# [48] = test system: RPMI-8226 leukemia
# [49] = test system: K-562 leukemia
# [50] = test system: HOP-62 NSCLC
# [51] = test system: SR leukemia
# [52] = test system: M14 melanoma
# [53] = test system: SK-MEL-5 melanoma
# [54] = test system: DLD-1 colon
# [55] = test system: HL-60(TB) leukemia
# [56] = test system: SNB-75 CNS
# [57] = test system: OVCAR-4 ovarian
smiles,measurement,setting,value
Cc1c(C(=O)/C=C/c2ccc(N(C)C)cc2)c(=O)n(-c2ccccc2)n1C,TGI,[1],> 100 µM
same,TGI,[2],> 100 µM
same,TGI,[3],> 100 µM
same,TGI,[4],> 100 µM
same,TGI,[5],> 100 µM
same,TGI,[6],> 100 µM
same,TGI,[7],> 100 µM
same,TGI,[8],> 100 µM
same,TGI,[9],> 100 µM
same,TGI,[10],> 100 µM
same,TGI,[11],> 100 µM
same,TGI,[12],> 100 µM
same,TGI,[13],> 100 µM
same,TGI,[14],> 100 µM
same,TGI,[15],> 100 µM
same,TGI,[16],> 100 µM
same,TGI,[17],> 100 µM
same,TGI,[18],> 100 µM
same,TGI,[19],> 100 µM
same,TGI,[20],> 100 µM
same,TGI,[21],> 100 µM
same,TGI,[22],> 100 µM
same,TGI,[23],> 100 µM
same,TGI,[24],> 100 µM
same,TGI,[25],> 100 µM
same,TGI,[26],> 100 µM
same,TGI,[27],> 100 µM
same,TGI,[28],> 100 µM
same,TGI,[29],> 100 µM
same,TGI,[30],> 100 µM
same,TGI,[31],> 100 µM
same,TGI,[32],> 100 µM
same,TGI,[33],> 100 µM
same,TGI,[34],> 100 µM
same,TGI,[35],> 100 µM
same,TGI,[36],> 100 µM
same,TGI,[37],> 100 µM
same,TGI,[38],> 100 µM
same,TGI,[39],> 100 µM
same,TGI,[40],> 100 µM
same,TGI,[41],> 100 µM
same,TGI,[42],> 100 µM
same,TGI,[43],> 100 µM
same,TGI,[44],> 100 µM
same,TGI,[45],> 100 µM
same,TGI,[46],> 100 µM
same,TGI,[47],> 100 µM
COC1=CC(=O)C2C(C1=O)C(c1ccccc1)[C@H]2C (some centres not stated),TGI,[2],> 100 µM
same,TGI,[3],> 100 µM
same,TGI,[48],> 100 µM
same,TGI,[5],> 100 µM
same,TGI,[6],> 100 µM
same,TGI,[8],49.4 µM
same,TGI,[9],> 100 µM
same,TGI,[11],> 100 µM
same,TGI,[49],> 100 µM
same,TGI,[13],35.9 µM
same,TGI,[14],> 100 µM
same,TGI,[15],49.1 µM
same,TGI,[16],> 100 µM
same,TGI,[17],> 100 µM
same,TGI,[18],57 µM
same,TGI,[50],> 100 µM
same,TGI,[19],> 100 µM
same,TGI,[51],> 100 µM
same,TGI,[21],> 100 µM
same,TGI,[23],> 100 µM
same,TGI,[24],> 100 µM
same,TGI,[25],> 100 µM
same,TGI,[26],> 100 µM
same,TGI,[27],> 10 µM
same,TGI,[28],> 100 µM
same,TGI,[52],> 100 µM
same,TGI,[29],> 100 µM
same,TGI,[30],> 100 µM
same,TGI,[53],> 100 µM
same,TGI,[54],> 10 µM
same,TGI,[31],36.6 µM
same,TGI,[32],68.5 µM
same,TGI,[33],> 100 µM
same,TGI,[55],> 100 µM
same,TGI,[56],> 100 µM
same,TGI,[35],> 100 µM
same,TGI,[36],> 100 µM
same,TGI,[37],> 100 µM
same,TGI,[38],> 100 µM
same,TGI,[39],> 100 µM
same,TGI,[40],> 100 µM
same,TGI,[41],> 100 µM
same,TGI,[42],> 100 µM
same,TGI,[43],> 100 µM
same,TGI,[45],> 100 µM
same,TGI,[46],> 100 µM
same,TGI,[47],> 10 µM
N#C/C(=C1\SC(N=Nc2ccccc2)C(=O)N1c1ccccc1)c1nc2ccccc2[nH]1 (configuration not stated),TGI,[1],> 100 µM
same,TGI,[2],> 100 µM
same,TGI,[3],> 100 µM
same,TGI,[4],> 100 µM
same,TGI,[5],> 100 µM
same,TGI,[6],97.6 µM
same,TGI,[7],> 100 µM
same,TGI,[8],> 100 µM
same,TGI,[57],> 100 µM
same,TGI,[9],> 100 µM
same,TGI,[10],> 100 µM
same,TGI,[49],> 100 µM
same,TGI,[12],> 100 µM
same,TGI,[13],> 100 µM
same,TGI,[14],> 100 µM
same,TGI,[15],85 µM
same,TGI,[16],> 100 µM
same,TGI,[17],> 100 µM
same,TGI,[18],> 100 µM
same,TGI,[50],73.6 µM
same,TGI,[19],> 100 µM
same,TGI,[20],> 100 µM
same,TGI,[21],> 100 µM
same,TGI,[22],> 100 µM
same,TGI,[23],> 100 µM
same,TGI,[24],> 100 µM
same,TGI,[25],> 100 µM
same,TGI,[26],> 100 µM
same,TGI,[27],> 100 µM
same,TGI,[52],> 100 µM
same,TGI,[29],> 100 µM
same,TGI,[30],> 100 µM
same,TGI,[53],> 100 µM
same,TGI,[54],> 100 µM
same,TGI,[31],> 100 µM
same,TGI,[32],> 100 µM
same,TGI,[33],> 100 µM
same,TGI,[55],> 100 µM
same,TGI,[34],> 100 µM
same,TGI,[56],> 100 µM
same,TGI,[35],> 100 µM
same,TGI,[36],> 100 µM
same,TGI,[37],> 100 µM
same,TGI,[38],64.4 µM
same,TGI,[39],> 100 µM
same,TGI,[40],> 100 µM
same,TGI,[41],> 100 µM
same,TGI,[42],> 100 µM
same,TGI,[43],> 100 µM
same,TGI,[44],> 100 µM
same,TGI,[45],> 100 µM
same,TGI,[46],> 100 µM
same,TGI,[47],> 100 µM
COC(=O)C1[C@H](c2cc(OC)c(OC)c(OC)c2)OC(=O)C1(C(=O)OC)C(=O)c1ccc2c(c1)OCO2 (some centres not stated),TGI,[1],> 100 µM
same,TGI,[2],> 100 µM
same,TGI,[3],> 100 µM
same,TGI,[4],> 100 µM
same,TGI,[48],> 100 µM
same,TGI,[5],> 100 µM
same,TGI,[6],> 100 µM
same,TGI,[7],> 100 µM
same,TGI,[8],> 100 µM
same,TGI,[57],> 100 µM
same,TGI,[9],> 100 µM
same,TGI,[10],> 100 µM
same,TGI,[11],> 100 µM
same,TGI,[49],> 100 µM
same,TGI,[12],> 100 µM
same,TGI,[13],> 100 µM
same,TGI,[14],> 100 µM
same,TGI,[15],> 100 µM
same,TGI,[16],> 100 µM
same,TGI,[17],> 100 µM
same,TGI,[18],> 100 µM
same,TGI,[50],> 100 µM
same,TGI,[19],> 100 µM
same,TGI,[20],> 100 µM
same,TGI,[21],> 100 µM
same,TGI,[22],> 100 µM
same,TGI,[23],> 100 µM
same,TGI,[24],> 100 µM
same,TGI,[25],> 100 µM
same,TGI,[26],> 100 µM
same,TGI,[27],> 100 µM
same,TGI,[28],> 100 µM
same,TGI,[52],> 100 µM
same,TGI,[29],> 100 µM
same,TGI,[30],> 100 µM
same,TGI,[53],> 100 µM
same,TGI,[54],> 100 µM
same,TGI,[31],> 100 µM
same,TGI,[32],> 100 µM
same,TGI,[33],> 100 µM
same,TGI,[55],> 100 µM
same,TGI,[34],> 100 µM
same,TGI,[56],> 100 µM
same,TGI,[35],> 100 µM
same,TGI,[37],> 100 µM
same,TGI,[38],> 100 µM
same,TGI,[39],> 100 µM
same,TGI,[40],> 100 µM
same,TGI,[41],> 100 µM
same,TGI,[42],> 100 µM
same,TGI,[43],> 100 µM
same,TGI,[44],> 100 µM
same,TGI,[45],> 100 µM
same,TGI,[46],> 100 µM
same,TGI,[47],> 100 µM

# Source: PubChem BioAssay (NCI)
